Measured values published in ChEMBL document CHEMBL3861987, “Synthesis, antitumor evaluation and 3D-QSAR studies of [1,2,4]triazolo[4,3-b][1,2,4,5]tetrazine derivatives” (Bioorg Med Chem Lett, 2016).

How the values were obtained:
[1] = Cytotoxicity against human MCF7 cells assessed as reduction in cell viability after 72 hrs by MTT assay; assay type: functional, cell-based; conditions: MCF7, 72 h
[2] = Cytotoxicity against human Bewo cells assessed as reduction in cell viability after 72 hrs by MTT assay; assay type: functional, cell-based
[3] = Cytotoxicity against human HL60 cells assessed as reduction in cell viability after 72 hrs by MTT assay; assay type: functional, cell-based; conditions: HL-60, 72 h
MCF-7 (Homo sapiens) = test: Antiproliferative activity against human MCF-7 cells after 72 hrs by MTT assay; conditions: MCF-7, 72 h, read-out: pIC50 (converted)
[4] = Solubility of compound in DMSO; assay type: physicochemical

Compound	IC50 [1]	IC50 [2]	IC50 [3]	IC50 (MCF-7 (Homo sapiens))	solubility [4]
CCCCCc1nnc2nnc(-n3nc(C)cc3C)nn12	22 µM	2.79 µM	1.05 µM	22 µM	
Cc1cc(C)n(-c2nnc3nnc(-c4ccccc4Cl)n3n2)n1	19.5 µM	3.21 µM	73.6 µM	19.5 µM	
COc1ccc(-c2nnc3nnc(N4CCOCC4)nn23)cc1	> 100 µM	8.94 µM	39 µM		
Cc1cc(C)n(-c2nnc3nnc(-c4ccccc4)n3n2)n1	13.7 µM	23.6 µM	12.1 µM	13.6 µM	
Clc1ccccc1-c1nnc2nnc(N3CCCC3)nn12	29.6 µM	2.99 µM	2.66 µM	29.6 µM	
c1ccc(-c2nnc3nnc(N4CCOCC4)nn23)cc1	8.87 µM	5.65 µM	30.4 µM	8.87 µM	
Fc1ccc(-c2nnc3nnc(N4CCOCC4)nn23)cc1	32.9 µM	4.65 µM	28.9 µM	32.9 µM	
Cc1cc(C)n(-c2nnc3nnc(C)n3n2)n1	17.8 µM	2.61 µM	0.43 µM	17.8 µM	
Cc1nnc2nnc(N3CCOCC3)nn12	38.9 µM	5.88 µM	4.52 µM	38.9 µM	
O=[N+]([O-])c1ccc(-c2nnc3nnc(N4CCOCC4)nn23)cc1	> 100 µM	> 100 µM	5.79 µM		
CC(C)(C)c1nnc2nnc(N3CCCC3)nn12	55 µM	12.5 µM	> 100 µM	55 µM	
Cc1cc(C)n(-c2nnc3nnc(C(C)C)n3n2)n1	33.7 µM	2.32 µM	1.16 µM	33.7 µM	
Clc1ccc(-c2nnc3nnc(N4CCOCC4)nn23)c(Cl)c1	19.3 µM	1.71 µM	4.84 µM	19.3 µM	
Cc1cc(C)n(-c2nnc3nnc(C(C)(C)C)n3n2)n1	17.6 µM	0.73 µM	0.73 µM	17.6 µM	
Fc1ccc(-c2nnc3nnc(N4CCCC4)nn23)cc1	> 100 µM	> 100 µM	4.56 µM		Insoluble
Clc1ccccc1-c1nnc2nnc(N3CCOCC3)nn12	14.9 µM	3.15 µM	13.2 µM	14.9 µM	
CC(C)c1nnc2nnc(N3CCCC3)nn12	46.8 µM	3.43 µM	71.2 µM	46.8 µM	
Clc1ccc(-c2nnc3nnc(N4CCOCC4)nn23)cc1	13.1 µM	4.09 µM	0.63 µM	13.1 µM	
Cc1cc(C)n(-c2nnc3nnc(-c4ccc(Cl)cc4)n3n2)n1	5.57 µM	22.6 µM	> 100 µM	5.57 µM	
CCc1nnc2nnc(-n3nc(C)cc3C)nn12	36 µM	1.64 µM	0.82 µM	36.1 µM	
Cc1cc(C)n(-c2nnc3nnc(C4CCCCC4)n3n2)n1	12.8 µM	6.7 µM	0.67 µM	12.8 µM	
COc1ccc(-c2nnc3nnc(-n4nc(C)cc4C)nn23)cc1	16.7 µM	18.3 µM	> 100 µM	16.7 µM	
Cc1cc(C)n(-c2nnc3nnc(Cc4ccccc4)n3n2)n1	54.8 µM	2.29 µM	2.61 µM	54.8 µM	
O=[N+]([O-])c1ccc(-c2nnc3nnc(N4CCCCC4)nn23)cc1	> 100 µM	> 100 µM	0.61 µM		
CCCCCc1nnc2nnc(N3CCCC3)nn12	42.9 µM	27.9 µM	42.5 µM	42.9 µM	
COc1ccc(-c2nnc3nnc(N4CCCCC4)nn23)cc1	> 100 µM	> 100 µM	12.8 µM		
Cc1cc(C)n(-c2nnc3nnc(-c4ccc([N+](=O)[O-])cc4)n3n2)n1	6.85 µM	7.29 µM	> 100 µM	6.85 µM	
CCc1nnc2nnc(N3CCCC3)nn12	47 µM	5.02 µM	47 µM	47 µM	
Fc1ccc(-c2nnc3nnc(N4CCCCC4)nn23)cc1	41.4 µM	3.34 µM	30.7 µM	41.4 µM	
